Laboratory results taken from patent US11015179B2, “Peptide having anti-viral effect and composition containing same” (priority 2015, dated 2021).

Tests used:
JFH-1 cells = experiment: Intracellular ROS production (DCF-DA) in JFH-1 cells; assay type: cell-based, human; conditions: for ROS production: 2 hours, PEP1 0.001-10 μM, NAC, PDTC 100 μM, vitamin E 10 μM, vs vehicle
Protocol: One day after 5×10^4 (cells/well) cells of the JFH-1 cell line were seeded into a 24-well plate, intracellular ROS production was measured according to various experimental materials. Measurement of intracellular activity was carried out by staining the cells with dichlorodihydrofluoresein diacetate (DCF-DA; Invitrogen), and fluorescence measurement of ROS production was carried out at […] using Infinte M2000 Tecan (Tecan Trading AG, Switzerland). All fluorescent units were expressed as arbitrary units, and as a positive control group, hydrogen peroxide (H2O2, 2 mM) was used. ROS measurement for the Huh7.5 cells was also carried out by the same procedure as described above.
As a control group, a human HCC cell line, and Huh7.5 and JFH-1 cell lines were treated with known representative antioxidants such as NAC (2 Mm), PDTC (100 μM), and vitamin E (10 μM) and then compared.
The inventors inhibited the interaction with HSP90 by two methods: a use of antibodies against […] and antibodies against HSP90 or a use of an inhibitor occupying a catalytic position (ATP-binding pocket in the N-terminal of HSP90).

HIV-1 [1] = conditions: characteristics of control anti-HIV drugs stated as well known; cited from earlier work
HCV = experiment: Quantitative PCR of HCV NS2 transcript in JFH-1 cells; assay type: cell-based, Hepatitis C virus (HCV2a JFH-1); conditions: 48 hours, vs vehicle, PEP1 until 10 μM, NAC 20 mM, PDTC 100 μM, vitamin E 10 μM
Protocol: A cell line used in the example relating to the HCV antiviral effect of PEP1 according to an aspect of the present invention, such as, human hepatocellular carcinoma (Huh7.5) was purchased from the American Type Culture Collection (ATCC; Manassas, Va., USA), and a JFH-1 cell line was constructed using HCV2a JFH-1 clones provided from Dr. Wakita (Tokyo Metropolitan Institute for Neuroscience, Tokyo, Japan) in the Huh7.5 cell line. All of the cell lines were cultured in a Dulbecco's modified Eagle's medium (DMEM) containing 10% FBS and 1% antibiotics.
A HCV RNA level was detected though quantitative PCR using primers for a NS2 gene. To measure the level of HCV RNA in the supernatant of cell culture, RNA was extracted from 100 μl of the cell culture using a QIAamp Viral RNA Mini kit (Qiagen). The extracted RNA was used in cDNA synthesis using a transcript first strand cDNA synthesis supermix kit (Roche Applied Science). PCR was carried out using a 1×SYBR Green mix (Qiagen). For real-time PCR, an NS2 forward primer 5′-[…]-3′ (SEQ ID NO: 3) and a reverse primer 5′-[…]-3′ (SEQ ID NO: 4) were purchased from Bioneer Co. For quantitative PCR, a 7900HT Fast real-time PCR system (Applied Biosystems, Foster City, Calif., USA) was used.
According to the methods described in the experiments and the analysis methods, to investigate whether PEP1 inhibits the replication of one HCV RNA such as NS2, the transcript of NS2 was measured.

p38, JNK and ERK = experiment: Immunoblotting of MAPK signaling factors in JFH-1 cells; assay type: cell-based, human; conditions: 2 hours, vitamin E 10 μM
Protocol: Proteins were acquired from cells using a lysis solution (Cell Signaling Technology, Danvers, Mass., USA) containing a proteinase inhibitors cocktail (Roche, Basel, Switzerland) and a phosphatase inhibitor (Roche). To remove debris, which remained after cell lysis, the cells were centrifuged for 10 minutes at 4° C. 50 μg of the proteins were analyzed through 12% sodium dodecyl sulfate-polyacrylamide gel electrophoresis (SDS-PAGE), and then transferred to a polyvinylidene difluoride membrane (PVDF; Millipore, Bedford, Mass., USA). The transferred membrane was developed using an ImageQuant™ LAS 4000 mini biomolecular imager (GE Healthcare Bio-Sciences AB, Sweden), after antibodies against HSP90, p38, p-p38 (Thr180/Tyr182), JNK, p-JNK (Thr183/Tyr185), ERK, p-ERK (Thr202/Tyr204), and zinc-copper containing enzyme SOD (CuZn-SOD) and manganese-SOD (Mn-SOD) as superoxide dismutase oxidases (SODs), and GAPDH (all of them were purchased from Cell Signaling Technology and Santa Cruz Biotechnology) were attached to the membrane and then visualized by a SuperSignal West Pico chemiluminescence substrate (Pierce, Rockford, USA). β-actin was used for normalization using a Multi Gauge V 3.0 (Fuji Film, Japan), and quantitative analysis was carried out by densitometry. […]

HIV-1 [2] = conditions: MT-4 cells
Protocol: The MT-4 cells (4×10^5 cells) were infected with HIV-1 (4×10^5 50% cell culture infective dose (CCID50)) for one hour. […] After two days of incubation, images of the MT-4 cells expressing eGFP were obtained using a fluorescence microscope before harvesting the cells. To remove cell debris, the collected supernatant was subjected to centrifugation at 13,000 rpm for 3 minutes, and to measure an extracellular viral amount, p24 ELISA or RNA extraction was performed for a reverse transcription-quantitative polymerase chain reaction (RT-qPCR). Meanwhile, the cell pellets were washed with D-PBS twice, and used for a cell viability assay. […] HIV-1 replication was analyzed by p24 ELISA, and eGFP was monitored using a fluorescent microscope.
To measure HIV-1 virus titers, HIV-1 p24 antigen capture ELISA (p24 ELISA, ABL) and RT-qPCT assay were performed according to the manufacturer's instructions. HIV-1 RNA genomes were purified from the cell culture supernatants and pellets using a QIAamp Ultrasens Virus kit (Qiagen, Hilden, Germany) according to the manufacturer's instructions. The HIV-1 RNA levels were quantified by RT-qPCR using a primer pair specific to gag of HIV-1. Glyceraldehyde phosphate dehydrogenase (GAPDH) was used as a reference gene for normalization. […]

HIV-1 [3] = conditions: ACH-2 cells, RT-qPCR, stepwise increasing concentrations
Protocol: That is, ACH-2 cells, that is, cells latently-infected with HIV-1, were stimulated with PMA (50 nM) to induce reactivation of HIV-1 for 1 hour. […] A production level of viral particles in the supernatant was determined by p24 ELISA.
The levels of viral genomic RNA of the produced viral particles were determined by RT-qPCR.

NF-κB = NF-κB dual-luciferase assay in MT-4 cells; assay type: cell-based, human; conditions: 24 hours
Text: NF-κB triggers HIV transcription by interacting with an NF-κB-binding site in HIV-LTR, and increases the activation of TAT-mediated LTR […]. In addition, Tat can directly activate NF-κB. Recently, there have been studies showing that eHSP90 can regulate various intracellular signaling pathways, including the NF-κB pathway.

[4] = system: HIV-1 Tat transactivation; experiment: HIV-LTR-luciferase assay in 1G5 cells transfected with Tat plasmids; assay type: cell-based; conditions: four days
Protocol: An HIV-1 transactivation protein (Tat) is a regulatory protein dramatically enhancing HIV-1 transcription through the interaction with the tat-transcriptional active region (TAR). […] In the present invention, as a Jurkat-derived cell line, 1G5 containing a stably-inserted HIV-LTR-luciferase construct was used.
The 1G5 cells were transfected with Tat plasmids. […] Four days after the infection, the transactivation of HIV-LTR was analyzed through a luciferase assay.

[5] = system: HIV-1-infected MT-4 cells; experiment: Cell protective effect from HIV-1-induced cell death in MT-4 cells; assay type: cell-based, human; conditions: 5 days
Protocol: MT-4, 1G5 or ACH-2 cells were seeded in a 96-well microplate at a density of 1×10^4 cells/well, and incubated with increasing concentrations of PEP1 for 5 days. Cell viability was determined by colorimetry using a CellTiter96 Aqueous One Solution assay kit (Promega, Wis.) according to the manufacturer's instructions. To assess the cell protective effect of PEP1 from HIV-1-induced cell death, MT-4 cells (1×10^4) were infected with the HIV-1 virus (4×10^5 CCID50) for 5 days with or without PEP1, and subjected to a cell viability assay.
It has been known that apoptosis of HIV-infected cells occurs by an intracellular cell death mechanism.

[6] = system: HSP90 (extracellular HSP90, eHSP90); experiment: Extracellular HSP90 detection by ELISA in JFH-1 culture supernatant; assay type: cell-based, human; conditions: JFH-1 cells, PDTC 100 μM, 2 hours, vs control
Protocol: The Huh7.5 and JFH-1 cell lines were treated with an oxidant (H2O2, 2 mM) and an antioxidant, PDTC (100 μM), for two hours. HSP90 (extracellular HSP90, eHSP90) in the supernatant of a culture was detected by ELISA (R&D Systems, Minneapolis, Minn., USA) according to the manufacturer's instructions.

Which “Change in ROS caused by HSP inhibitor” value (JFH-1 cells; 17AAG 1 μM, KNK 10 μM) does the source give for C=CCNC1=C2C[C@@H](C)C[C@H](OC)[C@H](O)[C@@H](C)/C=C(\C)[C@H](OC(N)=O)[C@@H](OC)/C=C\C=C(/C)C(=O)NC(=CC1=O)C2=O [17AAG, 17-N-Allylamino-17-demethoxy geldanamycin] here?
Its value is “the ROS inhibitory effect was exhibited”.

With CC(C)c1nc(CN(C)C(=O)N[C@H](C(=O)N[C@@H](Cc2ccccc2)C[C@H](O)[C@H](Cc2ccccc2)NC(=O)OCc2cncs2)C(C)C)cs1 [Ritonavir] as the compound, how does the “Time of treatment at which the control drug inhibits HIV proliferation” value (HIV-1 [1]) read?
Its value is “up to 15 hours”.

For vitamin E, which “NS2 transcription (HCV RNA replication)” value (HCV) is on record?
The value was “do not inhibit the NS2 transcription at all”.

And the ERK activity (p38, JNK and ERK)?
Its ERK activity is “increased”.

What about the ROS production (JFH-1 cells) of the same compound?
Its ROS production is “induced a decrease in ROS production”.

Which “NS2 transcription (HCV RNA replication)” value (HCV) does the source give for CC(=O)N[C@@H](CS)C(=O)O [NAC, N-acetylcysteine] here?
The value was “do not inhibit the NS2 transcription at all”.

And the ROS production (JFH-1 cells)?
Its ROS production is “induced a decrease in ROS production”.

Which results are given for Cc1cn([C@H]2C[C@H](N=[N+]=[N-])[C@@H](CO)O2)c(=O)[nH]c1=O [AZT, 3-azido-3-deoxythymidine]?
Inhibition of eGFP expression after anti-HSP90 antibodies (HIV-1 [2]; fluorescence / immunoblotting): an effect of AZT was not obtained; Inhibition of HIV-1 production after anti-HSP90 neutralization antibodies (HIV-1 [2]; p24 ELISA): no influence; Viral genomic RNA of produced viral particles after PMA (HIV-1 [3]): did not change the PMA effect; NF-κB activity in HIV-1-infected MT-4 cells (NF-κB): medium level of inhibitory effect; Basal NF-κB activity (NF-κB; MT-4 cells): no significant effect; HIV-LTR luciferase activity activated by ectopic expression of Tat [4]: did not inhibit; Cell protective effect [5]: considerable cell protective effects in a dose-dependent manner

Which eHSP90 level [6] does the source give for S=C(S)N1CCCC1 [PDTC, pyrolidine dithiocarbamate] here?
Its eHSP90 level is “produced at a lower level than the control group”.

What about the “NS2 transcription (HCV RNA replication)” value (HCV) of the same compound?
Its value is “do not inhibit the NS2 transcription at all”.

And the ROS production (JFH-1 cells)?
The ROS production was “induced a decrease in ROS production”.

And the “ROS production in the presence of KNK and 17AAG” value (JFH-1 cells; PDTC)?
The value was “inhibits ROS production in the presence of both of KNK and 17AAG”.

What about the “ROS production with HSP70/HSP90 blocking antibodies” value (JFH-1 cells; PDTC) of the same compound?
Its value is “inhibits ROS production regardless of blocking of HSP70 and HSP90”.
